According to ChEMBL document CHEMBL1137527, “Synthesis and biological evaluation of norcantharidin analogues: towards PP1 selectivity” (Bioorg Med Chem, 2007):

What was measured:
[1] = Inhibition of PP1 in rabbit skeletal muscle; assay type: tissue-based, Oryctolagus cuniculus, Muscle tissue
[2] = Inhibition of PP2A in human red blood cells; assay type: cell-based
[3] = Selectivity ratio of IC50 for rabbit skeletal muscle PP1 over IC50 for human PP2A; assay type: tissue-based; settings: Muscle tissue
[4] = (§1) Inhibition of bovine brain PP2B; set-up: species or system Bos taurus
[5] = Selectivity ratio of IC50 for rabbit skeletal muscle PP1 over IC50 for bovine brain PP2B; assay type: tissue-based; settings: Muscle tissue
[6] = species: Bos taurus; assay: as §1

Row | Structure (SMILES) | IC50 [1] [µM] | IC50 [2] [µM] | Ratio IC50 [3] | IC50 [4] [µM] | Ratio IC50 [5] | IC50 [6] [µM]
1 | CN(C)CCCNC(=O)C1C(C(=O)O)[C@H]2CC[C@@H]1O2 (stereo partly specified) | 43 | 57 | 0.75 | – | – | –
2 | O=C(Nc1ccc(N2CCOCC2)cc1)C1C(C(=O)O)[C@H]2CC[C@@H]1O2 (stereo partly specified) | 6.5 | 7.9 | 0.82 | 42 | 0.15 | –
3 | CCCCCCOc1ccc(NC(=O)C2C(C(=O)O)[C@H]3CC[C@@H]2O3)cc1 (stereo partly specified) | 11 | 15 | 0.73 | – | – | –
4 | O=C(Nc1cccc(CO)c1)C1C(C(=O)O)[C@H]2CC[C@@H]1O2 (stereo partly specified) | 15 | 7 | 2.14 | – | – | –
5 | CC(C)(C)c1ccc(NC(=O)C2C(C(=O)O)[C@H]3CC[C@@H]2O3)cc1 (stereo partly specified) | 10 | 11 | 0.91 | – | – | –
6 | Cc1cccc(NC(=O)C2C(C(=O)O)[C@H]3CC[C@@H]2O3)c1C (stereo partly specified) | 17 | 18 | 0.94 | – | – | –
7 | Cc1cc(C)c(NC(=O)C2C(C(=O)O)[C@H]3CC[C@@H]2O3)c(C)c1 (stereo partly specified) | 48 | 85 | 0.56 | 89 | 0.54 | –
8 | O=C(NCc1ccc(F)c(F)c1)C1C(C(=O)O)[C@H]2CC[C@@H]1O2 (stereo partly specified) | 26 | 26 | 1 | – | – | –
9 | CSc1ccccc1NC(=O)C1C(C(=O)O)[C@H]2CC[C@@H]1O2 (stereo partly specified) | 23 | 33 | 0.7 | – | – | –
10 | O=C(Nc1ccccc1CO)C1C(C(=O)O)[C@H]2CC[C@@H]1O2 (stereo partly specified) | 36 | 39 | 0.92 | – | – | –
11 | CC(C)(C)c1ccc(NC(=O)C2C(C(=O)O)[C@H]3CC[C@@H]2O3)c(C(C)(C)C)c1 (stereo partly specified) | 8.2 | 8.2 | 1 | – | – | –
12 | C[C@@]12C(=O)OC(=O)[C@]1(C)[C@H]1CC[C@@H]2O1 [CANTHARIDIN] | 7.6 | 0.99 | 7.7 | – | > 0.07 | > 100
13 | O=C(NCCCc1ccccc1)C1C(C(=O)O)[C@H]2CC[C@@H]1O2 (stereo partly specified) | 25 | 25 | 1 | – | – | –
14 | CCc1ccccc1NC(=O)C1C(C(=O)O)[C@H]2CC[C@@H]1O2 (stereo partly specified) | 51 | 24 | 2.12 | – | – | –
15 | O=C(Nc1ccc2ccccc2c1)C1C(C(=O)O)[C@H]2CC[C@@H]1O2 (stereo partly specified) | 14 | 15 | 0.93 | – | – | –
16 | O=C(NCc1ccccc1)C1C(C(=O)O)[C@H]2CC[C@@H]1O2 (stereo partly specified) | 35 | 12 | 2.9 | – | – | –
17 | O=C(NCCN1CCOCC1)C1C(C(=O)O)[C@H]2CC[C@@H]1O2 (stereo partly specified) | 30 | 43 | 0.7 | – | – | –
18 | O=C(NCCCCc1ccccc1)C1C(C(=O)O)[C@H]2CC[C@@H]1O2 (stereo partly specified) | 75 | 95 | 0.79 | – | – | –
19 | CSc1ccc(NC(=O)C2C(C(=O)O)[C@H]3CC[C@@H]2O3)cc1 (stereo partly specified) | 10 | 14 | 0.71 | – | – | –
20 | Cc1cccc(C)c1NC(=O)C1C(C(=O)O)[C@H]2CC[C@@H]1O2 (stereo partly specified) | 56 | 72 | 0.78 | – | – | –
21 | O=C(Nc1ccccc1)C1C(C(=O)O)[C@H]2CC[C@@H]1O2 (stereo partly specified) | 24.3 | 7.7 | 3.2 | – | – | –
22 | C#Cc1cccc(NC(=O)C2C(C(=O)O)[C@H]3CC[C@@H]2O3)c1 (stereo partly specified) | 17 | 18 | 0.94 | – | – | –
23 | O=C1OC(=O)C2C3CCC(O3)C12 (stereo unspecified) [DEMETHYL-CANTHARIDIN] | 10.3 | 2.69 | 3.8 | 31 | 0.33 | –
24 | COc1ccc(NC(=O)C2C(C(=O)O)[C@H]3CC[C@@H]2O3)cc1 (stereo partly specified) | 15 | 16 | 0.94 | – | – | –
25 | O=C(NCc1ccc(C(F)(F)F)cc1)C1C(C(=O)O)[C@H]2CC[C@@H]1O2 (stereo partly specified) | 16 | 20 | 0.8 | – | – | –
26 | CN(C)CCNC(=O)C1C(C(=O)O)[C@H]2CC[C@@H]1O2 (stereo partly specified) | 67 | > 100 | < 0.67 | – | – | –
